The target of assay [1] is T1, Human Thyroid Hormone Receptor α1 (TRα1) (Homo sapiens, UniProt P10827).
T1 construct: expressed in transfected cells; host or cells: 293T cells
T1 sequence (P10827 1-410 isoform P10827-2): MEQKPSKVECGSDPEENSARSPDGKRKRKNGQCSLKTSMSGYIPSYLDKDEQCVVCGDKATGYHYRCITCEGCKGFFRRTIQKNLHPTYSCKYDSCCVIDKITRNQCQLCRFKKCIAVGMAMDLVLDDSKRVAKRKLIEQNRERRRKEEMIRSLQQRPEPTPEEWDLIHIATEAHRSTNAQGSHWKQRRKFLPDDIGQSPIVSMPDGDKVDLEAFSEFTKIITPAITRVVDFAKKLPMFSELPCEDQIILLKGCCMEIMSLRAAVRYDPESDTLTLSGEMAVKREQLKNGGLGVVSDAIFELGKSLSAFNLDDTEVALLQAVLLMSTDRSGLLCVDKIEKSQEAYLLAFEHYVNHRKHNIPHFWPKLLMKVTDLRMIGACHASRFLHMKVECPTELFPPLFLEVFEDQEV
The assay is described as follows: Transcription activation test of human thyroid hormone receptor α1 (luciferase reporter in 293T cells). Particulars: ratio TRα/TRβ of the transcription activation EC50 values. In kind it is cell-based. From the text: (§1) Transcription Activation Test of Human Thyroid Hormone Receptors α1 (TRα1) and β1 (TRβ1)
(§2) pcDNA3.1 vector (manufactured by Invitrogen) that expresses TRα1 or β1 cloned from human liver-derived cells, and firefly luciferase expression vector pDR4-LuC (manufactured by Stratagene) having a thyroid hormone response sequence to be a reporter were transfected into 293T cells cultured in Dulbecco's modified Eagle medium (DMEM) containing 10% of activated carbon/dextran-treated fetal bovine serum (FBS) by using Lipofectamine2000 (manufactured by Invitrogen). After 16 hr, the cells were plated again in a 96 well plate, and the medium was exchanged with DMEM containing 0.1% activated carbon/dextran-treated FBS. After 3 more hr, a compound diluted with dimethyl sulfoxide solution was added, and the luciferase activity after 24 hr was measured.
(§3) As a positive control, 3,3′,5-triiodo-L-thyronine (T3), which is a biological ligand, was used. The transcription activation action of the compound on TRα1 and TRβ1 was shown by each EC50 value and the maximum luciferase activity value relative to the maximum luciferase activity value of T3 as 100.

The target of assay [2] is T2, Human Thyroid Hormone Receptor β1 (TRβ1) (Homo sapiens, UniProt P10828).
T2 construct: expressed in transfected cells; host or cells: 293T cells
T2 sequence (P10828 1-461): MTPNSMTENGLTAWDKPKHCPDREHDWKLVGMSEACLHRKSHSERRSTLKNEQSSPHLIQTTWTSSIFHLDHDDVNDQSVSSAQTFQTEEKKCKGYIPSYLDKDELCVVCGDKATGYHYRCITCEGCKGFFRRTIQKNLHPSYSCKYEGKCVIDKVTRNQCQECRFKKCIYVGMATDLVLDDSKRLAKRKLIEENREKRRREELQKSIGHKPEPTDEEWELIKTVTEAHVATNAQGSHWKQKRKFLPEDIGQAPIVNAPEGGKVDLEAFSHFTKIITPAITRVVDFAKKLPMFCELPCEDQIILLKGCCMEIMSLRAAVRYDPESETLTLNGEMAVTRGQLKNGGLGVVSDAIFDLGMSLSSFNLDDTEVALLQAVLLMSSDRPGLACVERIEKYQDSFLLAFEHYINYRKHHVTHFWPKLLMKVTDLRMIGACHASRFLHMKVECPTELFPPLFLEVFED
The assay is described as follows: Transcription activation test of human thyroid hormone receptor β1 (luciferase reporter in 293T cells). In kind it is cell-based. Particulars: EC50 of transcription activation on TRβ1, 293T cells, luciferase activity after 24 hr; read-out: TRβ.
Text: as §1, §2, §3

`Cc1cc(CCC(=O)O)c(C)c(C)c1Cc1ccc(O)c(C2CCCCC2)n1` [Example 26, 3-{4-[(6-cyclohexyl-5-hydroxypyridin-2-yl)methyl]-2,3,5-trimethylphenyl}propanoic acid]: the “selectivity (TRα/TRβ)” value in assay [1] is on record as “C (2>(TRα/TRβ))”. For the same compound, in assay [2], the EC50 is 6 nM.
The corresponding values for `Cc1cc(OCC(=O)O)c(C)c(C)c1Oc1ccc(O)c(C(C)C)n1` [Example 9, {4-[(5-hydroxy-6-isopropylpyridin-2-yl)oxy]-2,3,5-trimethylphenoxy}acetic acid] are “C (2>(TRα/TRβ))” and 7 nM.
On the same counts, the results for `Cc1cc(NC(=O)CC(=O)O)cc(C)c1Cc1ccc(O)c(C(C)C)n1` [Example 21, 3-({4-[(5-hydroxy-6-isopropylpyridin-2-yl)methyl]-3,5-dimethylphenyl}amino)-3-oxopropanoic acid] are “B (2<(TRα/TRβ)<5)” and 30 nM.
On the same counts, the results for `COc1c(OCc2noc(=O)[nH]2)cc(C)c(Cc2ccc(O)c(C3CCCCC3)n2)c1C` [Example 107, 3-({4-[(6-cyclohexyl-5-hydroxypyridin-2-yl)methyl]-2-methoxy-3,5-dimethylphenoxy}methyl)-1,2,4-oxadiazol-5(4H)-one] are “C (2>(TRα/TRβ))” and 10 nM.
Turning to `Cc1cc(NCC(=O)O)c(C)c(C)c1Cc1ccc(O)c(C2CCCCC2)n1` [Example 62, N-{4-[(6-cyclohexyl-5-hydroxypyridin-2-yl)methyl]-2,3,5-trimethylphenyl}glycine], the “selectivity (TRα/TRβ)” value in assay [1] is “B (2<(TRα/TRβ)<5)”. Further, in assay [2], the EC50 stood at 4 nM.
In the case of `Cc1cc(OCc2noc(=O)[nH]2)c(F)c(C)c1Cc1ccc(O)c(-c2ccc(F)c(F)c2F)n1` [Example 191, 3-{2-fluoro-4-[5-hydroxy-6-(2,3,4-trifluoro-phenyl)-pyridin-2-ylmethyl]-3,5-dimethyl-phenoxymethyl}-1,2,4-oxadiazol-5(4H)-one], the “selectivity (TRα/TRβ)” value in assay [1] is recorded as “A (5<(TRα/TRβ))”. Besides, the EC50 in assay [2] came out at 6 nM.
On to `Cc1cc(OCC(=O)O)c(F)c(C)c1Cc1ccc(O)c(C2CCCCC2)n1` [Example 12, {4-[(6-cyclohexyl-5-hydroxypyridin-2-yl)methyl]-2-fluoro-3,5-dimethylphenoxy}acetic acid], for which the “selectivity (TRα/TRβ)” value in assay [1] is reported as “B (2<(TRα/TRβ)<5)”. In assay [2], the EC50 amounted to 0.7 nM.
The corresponding values for `Cc1cc(OCc2noc(=O)[nH]2)cc(C)c1Cc1ccc(O)c(C(C)C)n1` [Example 27, 3-({4-[(5-hydroxy-6-isopropylpyridin-2-yl)methyl]-3,5-dimethylphenoxy}methyl)-1,2,4-oxadiazol-5(4H)-one] are “C (2>(TRα/TRβ))” and 0.3 nM.
As for `Cc1cc(OCC(=O)O)c(C)c(C)c1Cc1ccc(O)c(C2CCCCCC2)n1` [Example 92, {4-[(6-cycloheptyl-5-hydroxypyridin-2-yl)methyl]-2,3,5-trimethylphenoxy}acetic acid], in assay [1], the “selectivity (TRα/TRβ)” value is reported as “A (5<(TRα/TRβ))”. The EC50 in assay [2] was found to be 1 nM.
With `Cc1cc(NC(=O)CC(=O)O)cc(C)c1Cc1ccc(O)c(C2CCCCCC2)n1` [Example 52, 3-({4-[(6-cycloheptyl-5-hydroxypyridin-2-yl)methyl]-3,5-dimethylphenyl}amino)-3-oxopropanoic acid], the “selectivity (TRα/TRβ)” value in assay [1] is listed as “A (5<(TRα/TRβ))”. For the same compound, the EC50 in assay [2] amounted to 6 nM.
The corresponding values for `Cc1cc(OCC(=O)O)c(C)c(C)c1Cc1nc(C2CCCCC2)c(O)cc1F` [Example 73, {4-[(6-cyclohexyl-3-fluoro-5-hydroxypyridin-2-yl)methyl]-2,3,5-trimethylphenoxy}acetic acid] are “A (5<(TRα/TRβ))” and 0.2 nM.
The corresponding values for `Cc1nc(OCC(=O)O)c(C)c(C)c1Cc1ccc(O)c(C2CCCCC2)n1` [Example 45, ({5-[(6-cyclohexyl-5-hydroxypyridin-2-yl)methyl]-3,4,6-trimethylpyridin-2-yl}oxy)acetic acid] are “A (5<(TRα/TRβ))” and 5 nM.
On the same counts, the results for `Cc1cc(OCc2noc(=O)[nH]2)c(C)c(C)c1Oc1ccc(O)c(C(C)C)n1` [Example 36, 3-({4-[(5-hydroxy-6-isopropylpyridin-2-yl)oxy]-2,3,5-trimethylphenoxy}methyl)-1,2,4-oxadiazol-5(4H)-one] are “C (2>(TRα/TRβ))” and 3 nM.
For the compound `Cc1cc(NC(=O)CC(=O)O)c(Cl)c(C)c1Cc1ccc(O)c(C2CCCCC2)n1` [Example 54], the “selectivity (TRα/TRβ)” value in assay [1] was “A (5<(TRα/TRβ))”. Also, in assay [2], the EC50 amounted to 6 nM.
Consider `Cc1cc(OCC(=O)O)c(Br)c(C)c1Cc1ccc(O)c(C2CCCCC2)n1` [Example 13, {2-bromo-4-[(6-cyclohexyl-5-hydroxypyridin-2-yl)methyl]-3,5-dimethylphenoxy}acetic acid], for which the “selectivity (TRα/TRβ)” value in assay [1] is “A (5<(TRα/TRβ))”. For the same compound, the EC50 in assay [2] was found to be 0.3 nM.
The corresponding values for `Cc1cc(NC(=O)C(=O)O)cc(C)c1Cc1ccc(O)c(C2CCCCC2)n1` [Example 19, ({4-[(6-cyclohexyl-5-hydroxypyridin-2-yl)methyl]-3,5-dimethylphenyl}amino)(oxo)acetic acid] are “B (2<(TRα/TRβ)<5)” and 5 nM.
The corresponding values for `CCCOc1cccc(-c2nc(Cc3c(C)cc(OCc4noc(=O)[nH]4)c(F)c3C)ccc2O)c1` [Example 236, 3-{2-fluoro-4-[5-hydroxy-6-(3-propoxy-phenyl)-pyridin-2-ylmethyl]-3,5-dimethyl-phenoxymethyl}-1,2,4-oxadiazol-5(4H)-one] are “A (5<(TRα/TRβ))” and 3 nM.
Regarding `Cc1cc(NC(=O)CC(=O)O)c(C)c(C)c1Cc1ccc(O)c(C2CCCCC2)n1` [Example 24, 3-({4-[(6-cyclohexyl-5-hydroxypyridin-2-yl)methyl]-2,3,5-trimethylphenyl}amino)-3-oxopropanoic acid], in assay [1], the “selectivity (TRα/TRβ)” value is “B (2<(TRα/TRβ)<5)”. Moreover, in assay [2], the EC50 was found to be 30 nM.
With `Cc1cc(OCC(=O)O)cc(C)c1Cc1ccc(O)c(-c2ccc3ccccc3c2)n1` [Example 3, (4-{[5-hydroxy-6-(2-naphthyl)pyridin-2-yl]methyl}-3,5-dimethylphenoxy)acetic acid], in assay [1], the “selectivity (TRα/TRβ)” value is on record as “A (5<(TRα/TRβ))”. Further, the EC50 in assay [2] amounted to 20 nM.
Consider `Cc1cc(/C=C/C(=O)O)c(C)c(C)c1Cc1ccc(O)c(C2CCCCC2)n1` [Example 25, (2E)-3-{4-[(6-cyclohexyl-5-hydroxypyridin-2-yl)methyl]-2,3,5-trimethylphenyl}acrylic acid], for which the “selectivity (TRα/TRβ)” value in assay [1] is given as “C (2>(TRα/TRβ))”. In addition, the EC50 in assay [2] amounted to 1 nM.
With `Cc1cc(OCc2noc(=O)[nH]2)c(F)c(C)c1Cc1ccc(O)c(C(C)C)n1` [Example 37, 3-({2-fluoro^-4-[(5-hydroxy-6-isopropylpyridin-2-yl)methyl]-3,5-dimethylphenoxy}methyl)-1,2,4-oxadiazol-5(4H)-one], the “selectivity (TRα/TRβ)” value in assay [1] is recorded as “B (2<(TRα/TRβ)<5)”. Further, the EC50 in assay [2] is 0.1 nM.
On the same counts, the results for `COCC1(c2nc(Cc3c(C)cc(OCc4noc(=O)[nH]4)c(F)c3C)ccc2O)CCCCC1` [Example 268, 3-{[2-fluoro-4-({5-hydroxy-6-[1-(methoxymethyl)cyclohexyl]pyridin-2-yl}methyl)-3,5-dimethylphenoxy]methyl}-1,2,4-oxadiazol-5(4H)-one] are “B (2<(TRα/TRβ)<5)” and 1 nM.
Take `Cc1cc(OCC(=O)O)c(C)c(C)c1Cc1ccc(O)c(C2CCCC2)n1` [Example 5, {4-[(6-cyclopentyl-5-hydroxypyridin-2-yl)methyl]-2,3,5-trimethylphenoxy}acetic acid]: in assay [1], the “selectivity (TRα/TRβ)” value is given as “A (5<(TRα/TRβ))”. Also, the EC50 in assay [2] stood at 0.5 nM.
The corresponding values for `Cc1cc(OCC(=O)O)c(C)c(C)c1Cc1ccc(O)c(-c2cccc(F)c2)n1` [Example 171, {4-[6-(3-fluoro-phenyl)-5-hydroxy-pyridin-2-ylmethyl]-2,3,5-trimethyl-phenoxy}acetic acid] are “A (5<(TRα/TRβ))” and 2 nM.

The record behind these values is US8791266B2, “Thyroid hormone β receptor agonist” (Mitsubishi Tanabe Pharma Corporation, priority 2009, dated 2014).
